Results: patent publication US10918610B2, “Compounds and methods of promoting myelination” (Case Western Reserve University, priority 2017, dated 2021)

Tested on: human cortical spheroids
Test: MYRF+ oligodendrocytes in human cortical spheroids
Format: cell-based
Details: 30 nM from days 61-71, assayed on day 94, versus untreated
Description: Human cortical spheroids were generated as described in Madhavan et al, (Nature Methods, 15:700-706, 2018). In brief, spheroids were left untreated, or treated with Cis-N-cyclohexyl-N-ethyl-3-(3-chloro-4-cyclohexylphenyl)prop-2-enylamine (30 nM) from days 61-71 and assayed […] on day 94 for MyRF+ oligodendrocytes (Rabbit anti-MyRF antibody was generously provided by M. Wegner and used at 1:1000).
For patterning of neurocortical spheroids, pluripotent stem cell colonies cultured on vitronectin (Gibco; A14700) were lifted with dispase (Gibco; 17105-041) at 37° C. for 10 min. Intact colonies were transferred to individual low-adherence V-bottom 96-well plates (S-Bio Prime; MS-9096VZ) in 200 μl of spheroid starter media with 10 μM ROCK inhibitor Y-27632 (Calbiochem; 688001), 10 μM dorsopmorphin (Sigma; P5499), and 10 μM SB-431542 (Sigma; S4317). […]
Spheroids for immunohistochemistry were initially fixed with 4% ice-cold paraformaldehyde for 45 min, washed three times in PBS, and equilibrated with 30% sucrose overnight. […] Two fields from the top and bottom of the spheroid and two fields from the edges of the central region of the spheroids were quantified. […]

`CCN(C/C=C\c1ccc(C2CCCCC2)c(Cl)c1)C1CCCCC1` [Cis-N-cyclohexyl-N-ethyl-3-(3-chloro-4-cyclohexylphenyl)prop-2-enylamine] was tested, and the “MYRF+ oligodendrocytes in human cortical spheroids” value was “selectively increase MYRF+ oligodendrocytes”.
